In general, DC50 refers to the concentration giving 50% degradation. Usually Dmax stands for the greatest extent of degradation seen.

The test deals with T1, HPK1 (Homo sapiens, UniProt Q92918).
T1 construct: A HiBiT tag was introduced by CRISPR on the N terminus of HPK1 in Jurkat cells; host or cells: Jurkat cells (ATCC TIB-152), monoclonal line with CRISPR knock-in of HiBiT at the endogenous HPK1 locus
As to the kind of experiment: HPK1 Cellular HiBit Degradation Assay. In kind it is cell-based. The settings on record: HiBiT HPK1 Jurkat cells, 24 hrs; for DC50: concentration at which 50% of HPK1 was remaining, read-out: DC50 Category; for Dmax: Jurkat, maximum degradation vs DMSO vehicle control, read-out: Dmax Category. The essentials: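 Jurkat cells with CRISPR knock-in N-terminal HiBiT-HPK1 were treated with CTMs (11-point, 3.16-fold, 10 uM to 0.1 nM final) for 24 hrs at 37° C. HiBiT lytic luminescence, with parental Jurkat as background and DMSO as 100%, gave % HPK1 remaining; four-parameter fit yielded DC50 and Dmax (100 minus lowest % remaining).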
For orientation: HiBiT is a short tag that completes a luciferase, so light tracks the accessible tagged protein.

Structures are written as SMILES. Some results are limits rather than exact numbers.

T1 sequence (Q92918 whole entry): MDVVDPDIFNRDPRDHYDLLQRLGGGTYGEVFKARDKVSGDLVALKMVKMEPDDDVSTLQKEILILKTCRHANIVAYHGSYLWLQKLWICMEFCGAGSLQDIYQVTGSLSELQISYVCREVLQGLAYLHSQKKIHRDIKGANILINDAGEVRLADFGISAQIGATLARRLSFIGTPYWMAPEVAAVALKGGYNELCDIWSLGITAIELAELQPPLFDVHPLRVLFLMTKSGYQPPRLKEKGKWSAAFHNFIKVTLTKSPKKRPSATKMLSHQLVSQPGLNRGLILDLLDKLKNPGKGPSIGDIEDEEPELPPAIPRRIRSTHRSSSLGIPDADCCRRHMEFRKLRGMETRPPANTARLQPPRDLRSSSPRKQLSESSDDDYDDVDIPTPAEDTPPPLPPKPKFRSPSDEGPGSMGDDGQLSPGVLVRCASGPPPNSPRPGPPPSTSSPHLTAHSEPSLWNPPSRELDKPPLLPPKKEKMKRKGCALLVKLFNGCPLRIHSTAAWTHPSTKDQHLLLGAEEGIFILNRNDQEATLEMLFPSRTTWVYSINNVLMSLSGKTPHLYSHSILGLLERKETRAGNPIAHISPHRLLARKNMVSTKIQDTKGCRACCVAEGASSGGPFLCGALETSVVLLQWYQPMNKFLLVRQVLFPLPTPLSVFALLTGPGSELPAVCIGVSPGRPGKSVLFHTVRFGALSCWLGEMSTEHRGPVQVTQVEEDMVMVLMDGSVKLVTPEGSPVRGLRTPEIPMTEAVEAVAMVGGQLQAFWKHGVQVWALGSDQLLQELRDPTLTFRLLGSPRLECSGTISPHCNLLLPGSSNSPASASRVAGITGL

In the case of `CC(C)n1cnc2cc(-c3ccc4c(c3)N([C@H]3C[C@@H](N5CCCCC5)C3)C(=O)C43CCN(C(=O)[C@H]4CC[C@H](C(=O)N5CCC(N(C)c6ccc(C7CCC(=O)NC7=O)cn6)CC5)CC4)CC3)nc(NC3CC3)c21` (mixture of isomers) [Example 137, (3RS)-3-{6-[methyl({1-[(1R,4R)-4-({6-[4-(cyclopropylamino)-3-(propan-2-yl)-3H-imidazo[4,5-c]pyridin-6-yl]-2-oxo-1-[(1S,3S)-3-(piperidin-1-yl)cyclobutyl]-1,2-dihydrospiro[indole-3,4′-piperidin]-1′-yl}carbonyl)cyclohexanecarbonyl]piperidin-4-yl})amino]pyridin-3-yl}piperidine-2,6-dione], the DC50 is < 100 nM and the Dmax is 70 to 85%.
In the same order, the values of `CC(C)n1cnc2cc(-c3ccc4c(c3)N([C@H]3C[C@@H](N5CCCCC5)C3)C(=O)C43CCN(C(=O)[C@H]4CC[C@H](C(=O)N5CCC(N(C)c6ccc(C7CCC(=O)NC7=O)cn6)CC5)CC4)CC3)nc(Nc3ccccc3F)c21` (mixture of isomers) [Example 138, (3RS)-3-{6-[methyl({1-[(1R,4R)-4-[(6-{4-[(2-fluorophenyl)amino]-3-(propan-2-yl)-3H-imidazo[4,5-c]pyridin-6-yl}-2-oxo-1-[(1S,3S)-3-(piperidin-1-yl)cyclobutyl]-1,2-dihydrospiro[indole-3,4′-piperidin]-1′-yl)carbonyl]cyclohexanecarbonyl]piperidin-4-yl})amino]pyridin-3-yl}piperidine-2,6-dione] are < 100 nM and > 85%.
Taken in the same sequence, the figures for `CC(C)n1cnc2cc(-c3ccc4c(c3)N([C@H]3C[C@@H](N5CCCCC5)C3)C(=O)C43CCN(C(=O)[C@H]4CC[C@H](C(=O)N5CCC(N(C)c6ccc(C7CCC(=O)NC7=O)cn6)CC5)CC4)CC3)nc(Nc3ccncc3F)c21` (mixture of isomers) [Example 139, (3RS)-3-{6-[methyl({1-[(1R,4R)-4-[(6-{4-[(3-Fluoropyridin-4-yl)amino]-3-(propan-2-yl)-3H-imidazo[4,5-c]pyridin-6-yl}-2-oxo-1-[(1S,3S)-3-(piperidin-1-yl)cyclobutyl]-1,2-dihydrospiro[indole-3,4′-piperidin]-1′-yl)carbonyl]cyclohexanecarbonyl]piperidin-4-yl})amino]pyridin-3-yl}piperidine-2,6-dione] were < 100 nM and 70 to 85%.
In the same order, the values of `CC(C)n1cnc2cc(-c3ccc4c(c3)N([C@H]3C[C@@H](N5CCCCC5)C3)C(=O)C43CCN(C(=O)c4ccc(C(=O)N5CCC(N(C)c6ccc(C7CCC(=O)NC7=O)cn6)CC5)cc4)CC3)nc(Nc3ccccc3F)c21` (mixture of isomers) [Example 140, (3RS)-3-{6-[(1-{4-[(6-{4-[(2-fluorophenyl)amino]-3-(propan-2-yl)-3H-imidazo[4,5-c]pyridin-6-yl}-2-oxo-1-[(1S,3S)-3-(piperidin-1-yl)cyclobutyl]-1,2-dihydrospiro[indole-3,4′-piperidin]-1′-yl)carbonyl]benzoyl}piperidin-4-yl)(methyl)amino]pyridin-3-yl}piperidine-2,6-dione] are 500 to 1000 nM and 50 to 70%.
Turning to `CC(C)n1cnc2cc(-c3ccc4c(c3)N([C@H]3C[C@@H](N5CCCCC5)C3)C(=O)C43CCN(C(=O)c4ccc(C(=O)N(C)C5CCN(c6ccc(C7CCC(=O)NC7=O)cn6)CC5)cc4)CC3)nc(Nc3ccccc3F)c21` (mixture of isomers) [Example 141, N-(1-{5-[(3RS)-2,6-dioxopiperidin-3-yl]pyridin-2-yl}piperidin-4-yl)-4-[(6-{4-[(2-Fluorophenyl)amino]-3-(propan-2-yl)-3H-imidazo[4,5-c]pyridin-6-yl}-2-oxo-1-[(1S,3S)-3-(piperidin-1-yl)cyclobutyl]-1,2-dihydrospiro[indole-3,4′-piperidin]-1′-yl)carbonyl]-N-methylbenzamide], the DC50 was 500 to 1000 nM and the Dmax was 50 to 70%.
Taken in the same sequence, the figures for `Cc1cc(F)c(Nc2nc(-c3ccc4c(c3)N([C@H]3C[C@@H](N5CCCCC5)C3)C(=O)C43CCN(C(=O)C4CCN(CC5CCN(c6cccc7c6n(C)c(=O)n7C6CCC(=O)NC6=O)CC5)CC4)CC3)cc3ncn(C(C)C)c23)cc1C(=O)NC(C)C` (mixture of isomers) [Example 142, 5-{[6-(1′-{1-[(1-{1-[(3RS)-2,6-dioxopiperidin-3-yl]-3-methyl-2-oxo-2,3-dihydro-1H-1,3-benzodiazol-4-yl}piperidin-4-yl)methyl]piperidine-4-carbonyl}-2-oxo-1-[(1S,3S)-3-(piperidin-1-yl)cyclobutyl]-1,2-dihydrospiro[indole-3,4′-piperidin]-6-yl)-3-(propan-2-yl)-3H-imidazo[4,5-c]pyridin-4-yl]amino}-4-fluoro-2-methyl-N-(propan-2-yl)benzamide] were 500 to 1000 nM and 70 to 85%.
With `CC(C)n1cnc2cc(-c3ccc4c(c3)N([C@H]3C[C@@H](N5CCCCC5)C3)C(=O)C43CCN(C(=O)[C@H]4CCN(C(=O)[C@H]5CC[C@@H](Nc6cccc7c6n(C)c(=O)n7C6CCC(=O)NC6=O)CC5)C4)CC3)nc(Nc3ccccc3F)c21` (mixture of isomers) [Example 143, (3RS)-3-(3-methyl-2-oxo-4-{[(1R,4R)-4-[(3S)-3-[(6-{4-[(2-fluorophenyl)amino]-3-(propan-2-yl)-3H-imidazo[4,5-c]pyridin-6-yl}-2-oxo-1-[(1S,3S)-3-(piperidin-1-yl)cyclobutyl]-1,2-dihydrospiro[indole-3,4′-piperidin]-1′-yl)carbonyl]pyrrolidine-1-carbonyl]cyclohexyl]amino}-2,3-dihydro-1H-1,3-benzodiazol-1-yl)piperidine-2,6-dione], the DC50 was < 100 nM and the Dmax was in the range of 50 to 70%.
In the same order, the values of `CC(C)n1cnc2cc(-c3ccc4c(c3)N([C@H]3C[C@@H](N5CCCCC5)C3)C(=O)C43CCN(C(=O)[C@@H]4CCN(C(=O)[C@H]5CC[C@H](Nc6cccc7c6n(C)c(=O)n7C6CCC(=O)NC6=O)CC5)C4)CC3)nc(Nc3ccccc3F)c21` (mixture of isomers) [Example 144, (3RS)-3-(3-methyl-2-oxo-4-{[(1R,4R)-4-[(3R)-3-[(6-{4-[(2-fluorophenyl)amino]-3-(propan-2-yl)-3H-imidazo[4,5-c]pyridin-6-yl}-2-oxo-1-[(1S,3S)-3-(piperidin-1-yl)cyclobutyl]-1,2-dihydrospiro[indole-3,4′-piperidin]-1′-yl)carbonyl]pyrrolidine-1-carbonyl]cyclohexyl]amino}-2,3-dihydro-1H-1,3-benzodiazol-1-yl)piperidine-2,6-dione] are < 100 nM and 50 to 70%.
As to `Cc1cc(F)c(Nc2nc(-c3ccc4c(c3)N([C@H]3C[C@@H](N5CCCCC5)C3)C(=O)C43CCN(C(=O)c4cc(C(=O)N5CCN(c6ccc7c(c6)C(=O)N(C6CCC(=O)NC6=O)C7=O)CC5)n(C)n4)CC3)cc3ncn(C(C)C)c23)cc1C(=O)NC(C)C` (mixture of isomers) [Example 145, 5-[(6-{1′-[5-(4-{2-[(3RS)-2,6-dioxopiperidin-3-yl]-1,3-dioxo-2,3-dihydro-1H-isoindol-5-yl}piperazine-1-carbonyl)-1-methyl-1H-pyrazole-3-carbonyl]-2-oxo-1-[(1S,3S)-3-(piperidin-1-yl)cyclobutyl]-1,2-dihydrospiro[indole-3,4′-piperidin]-6-yl}-3-(propan-2-yl)-3H-imidazo[4,5-c]pyridin-4-yl)amino]-4-fluoro-2-methyl-N-(propan-2-yl)benzamide], the DC50 lay within 500 to 1000 nM and the Dmax is 50 to 70%.

The values above are taken from patent publication US12091426B2, “Bifunctional degraders of hematopoietic progenitor kinase and therapeutic uses thereof” (Nurix Therapeutics, Inc., priority 2021, dated 2024).
